Results taken from patent US20070167408A1, “NOVEL ALKYL PHOSPHOLIPID DERIVATIVES WITH REDUCED CYTOTOXICITY AND USES THEREOF” (ZENTARIS GmbH, priority 2005, published 2007).
In brackets after ≈: the same amount, converted by molar mass.

Columns and labels:
[1] = system: SKOV-3 (human ovary adenocarcinoma) cells; assay: XTT cytotoxicity assay, SKOV-3 cells; assay type: cell-based; details: for inhibition at 100 µM: Homo sapiens, SK-OV-3, second set of experiments, read-out: SKOV-3 % INH [100 μM]
Description: On the first day of the experiment cells were harvested from exponential phase cultures by trypsination, counted and plated into 96 well flat-bottom micro titer plates depending on the cell line as listed below: [table] After a 24 h recovery to allow the cells to resume exponential growth, the test compounds were diluted immediately prior to use and transferred in 25 μl volume to the wells. Following 2 days of continuous drug exposure 50 μl of freshly prepared XTT-PMS solution {2% 0.386 mg/ml PMS (N-Methyl Dibenzopyrazine Methylsulphate; Sigma, Cat. No. […] Serva, Cat. No. 38450) in RPMI 1640 medium without phenol red} was added to the wells. To measure the proportion of living cells, the cells were incubated for 3 h with XTT-PMS reagent at 37° C., 5% CO2, humidified atmosphere allowing to form the formazan salt. […] Inhibition curves were generated and IC50 values calculated by using GraphPad Prism.

[2] = system: PC3, RKOp21 and SKOV-3 cell lines; assay: XTT cytotoxicity assay, mean over all three cell lines; assay type: cell-based, human; details: mean value over all three cell lines
Description: Following 2 days of continuous drug exposure 50 μl of freshly prepared XTT-PMS solution {2% 0.386 mg/ml PMS (N-Methyl Dibenzopyrazine Methylsulphate; Sigma, Cat. No. […] Serva, Cat. No. 38450) in RPMI 1640 medium without phenol red} was added to the wells. To measure the proportion of living cells, the cells were incubated for 3 h with XTT-PMS reagent at 37° C., 5% CO2, humidified atmosphere allowing to form the formazan salt. […] Inhibition curves were generated and IC50 values calculated by using GraphPad Prism. In the following table 7 cytotoxicity results (% inhibition of cell growth) obtained in the second set of experiments for selected compounds of the invention are presented in comparison to examples of the prior art (perifosine, miltefosine). The results presented are individual values for the respective cell line as well as the mean value over all three cell lines tested.

[3] = system: RKOp21 (human colon adenocarcinoma) cells; assay: XTT cytotoxicity assay, RKOp21 cells; assay type: cell-based; details: for inhibition at 31.6 µM: read-out: RKOp21 % INH [31.6 μM]
Description: (§1) Cytotoxicity of selected compounds of the invention against different mammalian cell lines was assessed as follows.
(§2) Human tumor cell lines KB/HeLa (ATCC CCL17, human cervix carcinoma), PC3 (ATCC CRL1435, human prostate carcinoma) and RKOp21 (human colon adenocarcinoma; Schmidt et al., Oncogene 2000, 19: 2423-2429) cells were used in an automated XTT screening assay for the assessment of cytotoxicity.
(§3) The XTT assay quantifies cellular metabolic activity which correlates with cell viability and cell number. Test compounds (selected compounds of the invention and known substances as controls) are dissolved in culture medium at 600 μM and added to the tumor cells in 10 different concentrations in a semi-logarithmic fashion starting from 100 μM as highest concentration.
(§4) In a second set of experiments employing PC3, RKOp21 and SKOV-3 (ATCC HTB-77, human ovary adenocarcinoma) cells, test and reference compounds were dissolved in 70% Ethanol/30% H2O in a stock concentration of 10 mM and diluted in cell culture medium to yield either 31.6 μM (PC3 and RKOp21) or 100 μM (SKOV-3) final concentration.
(§5) 48 h later cellular metabolic activity of cells treated with test compounds is quantified by measurement of the absorbance at 490 nm (conversion of XTT dye) in comparison to untreated control cells (100% viability).
(§6) KB/HeLa and PC3 cells were cultivated in RPMI 1640 medium (Gibco, Cat. No. 42401-018) supplemented with 10% heat inactivated fetal calf serum (FCS, Biochrom AG, Cat. No. S0115), 2 mM L-glutamine (Gibco, Cat. No. 25030-24) and 2% Penicillin-Streptomycin (PenStrep, Gibco, Cat. No. 15140-122). RKOp21 cells were grown in DMEM+GlutaMAXTM-I medium (Gibco, Cat. No. 61965-026) supplemented with 10% heat inactivated fetal calf serum (FCS, Biochrom AG, Cat. No. S0115), 2 mM L-glutamine (Gibco, Cat. No. 25030-24), 2% Penicillin-Streptomycin (PenStrep, Gibco, Cat. No. 15140-122) and 1% 1M HEPES (Gibco, Cat. No. 15630-056). All cells were cultured at 37° C. in 5% CO2 humidified air.
(§7) On the first day of the experiment cells were harvested from exponential phase cultures by trypsination, counted and plated into 96 well flat-bottom micro titer plates depending on the cell line as listed below:
(§8) After a 24 h recovery to allow the cells to resume exponential growth, the test compounds were diluted immediately prior to use and transferred in 25 μl volume to the wells.
(§9) Following 2 days of continuous drug exposure 50 μl of freshly prepared XTT-PMS solution {2% 0.386 mg/ml PMS (N-Methyl Dibenzopyrazine Methylsulphate; Sigma, Cat. No. P9625) in PBS+98% 1 mg/ml XTT (Sodium 2,3-bis(2-methoxy-4-nitro-5-sulfophenyl)-5-[(phenylamino)carbonyl]-2H-Tetrazolium; Serva, Cat. No. 38450) in RPMI 1640 medium without phenol red} was added to the wells. To measure the proportion of living cells, the cells were incubated for 3 h with XTT-PMS reagent at 37° C., 5% CO2, humidified atmosphere allowing to form the formazan salt. The amount of soluble formazan salt produced by cellular reduction of XTT is quantified by measuring the absorbance at 490 nm using the Biomek® 2000 ELISA plate reader. %-inhibition (cytotoxicity) of each test compound was calculated in relation to untreated control cells. Inhibition curves were generated and IC50 values calculated by using GraphPad Prism.

[4] = system: PC3 (human prostate carcinoma) cells; assay: XTT cytotoxicity assay, PC3 cells; assay type: cell-based; details: for inhibition at 31.6 µM: read-out: PC3 % INH [31.6 μM]
Description: as §1, §2, §3, §4, §5, §6, §7, §8, §9

[5] = system: KB/HeLa (human cervix carcinoma) cells; assay: XTT cytotoxicity assay, KB/HeLa cells; assay type: cell-based; details: Homo sapiens, HeLa; XTT, 48 h exposure; read-out: KB/HELA [IC50 (μM)]
Description: as §1, §2, §3, §5, §6, §7, §8, §9

[6] = system: Moraxella catarrhalis DMS 11994 (ATCC 43617); assay: Anti-bacterial bouillon microdilution assay (MIC), bacterium D; assay type: cell-based; details: ATCC43617, 24 h
Description: Selected compounds of the invention were tested in a bouillon microdilution assay method according to the DIN 58940 (www.din.de) guidelines for determination of susceptibility of bacterial strains with regard to cell growth inhibition. The assay method quantifies bacterial cell growth which corresponds to the turbidity of the liquid culture medium by photometric measurement carried out at 595 nm.
The method of MIC determination was performed according to DIN 58940-5. The volumina were adapted according to the microdilution method as described in DIN 58940-7 guideline.
Dependent on water solubility, compounds of the invention were dissolved either in water or ethanol in a concentration of 10 mg/ml. Subsequently, the stock was further diluted in water to a concentration of 512 μg/ml. The following serial dilutions (factor 2) were performed in water resulting in the following […] testing concentrations: 256 μg/ml, 128 μg/ml, 64 μg/ml, 32 μg/ml, 16 μg/ml, 8 μg/ml, 4 μg/ml, 2 μg/ml, 1 μg/ml, 0.5 μg/ml, 0.25 μg/ml and 0.125 μg/ml. Diluted compounds of the invention were transferred in 100 μl volume to the microtiter plate wells.
Pre-cultures of bacteria were grown in appropriate liquid media (refer to ATCC webpage, www.atcc.org) and afterwards were inoculated in corresponding liquid medium. 100 μl of the inoculums [adjusted to an amount of app. 1×10^6 microorganisms per ml (range of 10^5-10^8 microorganisms per ml)] were added to each of the testing compound concentrations and cultivated under the appropriate conditions.
Before and after incubation, bacterial growth was determined by photometric analysis against a positive control containing growing bacteria without compound and a sterile/negative control containing only the medium.

[7] = Homo sapiens, 31.6 μM, second set of experiments
[8] = Homo sapiens, PC-3, 31.6 μM, second set of experiments
[9] = 31.6 μM, second set of experiments

| Compound | inhibition at 100 µM [1] [%] | Mean % INH [2] [%] | inhibition at 31.6 µM [3, 7] [%] | IC50 ([3]; Homo sapiens, XTT, 48 h exposure, read-out: RKOp21 [IC50 (μM)]) [µM] | inhibition at 31.6 µM [4, 8] [%] | IC50 ([4]; Homo sapiens, PC-3, XTT, 48 h exposure, read-out: PC3 [IC50 (μM)]) [µM] | IC50 [5] [µM] | MIC [6] [µg/mL] | SKOV-3 % INH [100 μM] ([1]; second set of experiments) [%] | RKOp21 % INH [31.6 μM] [3, 9] [%] | PC3 % INH [31.6 μM] [4, 9] [%] |
| --- | --- | --- | --- | --- | --- | --- | --- | --- | --- | --- | --- |
| CCCCCCCCC#CCCCCCCCCOP(=O)([O-])OCC[N+](C)(C)C [Compound 144] | -3 | 19.7 | 48 | 51.1 | 14 | > 100 | > 100 | – | – | – | – |
| CCCCCCCCCCCCCCCCOP(=O)([O-])OCC[N+]1(C)CCCC(C(=O)OCC)C1 (centres unmarked) [Compound 260] | 56.1 | 47.3 | 40.5 | – | 45.2 | – | – | 8 (≈ 15.4 µM) | – | – | – |
| CCCCCCCCCCCCCCCCOP(=O)([O-])OCCCC[N+](C)(C)C [Compound 314] | – | 31.8 | – | – | – | – | – | – | 33.2 | 10.6 | 51.6 |
| CCCCCCCCCCCCCCCCCCOP(=O)([O-])OC1CC[N+](C)(C)CC1 [perifosine, octadecyl-1,1-dimethyl-piperidino-4-yl-phosphate, reference compound] | 90.7 | 78.0 | 63 | – | 80.2 | – | – | – | – | – | – |
